We go through 18 compounds from ChEMBL document CHEMBL5257110, “Recent developments of imidazo[1,2-a]pyridine analogues as antituberculosis agents” (RSC Med Chem, 2023).

Data set [1] deals with Mycobacterium tuberculosis. Nature of the data set: Antimycobacterial activity against Mycobacterium tuberculosis H37Rv. Format: functional.
Data set [2] in a line: Cytotoxicity against CHO-K1 cells. Conditions: Chinese hamster. Format: toxicity, cell-based, Cricetulus griseus.
Data set [3] has as its system Mycobacterium tuberculosis. Nature of the data set: Antimycobacterial activity against Mycobacterium tuberculosis 7H12. Format: functional.
Data set [4] deals with Mycolicibacterium smegmatis. Nature of the data set: Antimycobacterial activity against Mycobacterium smegmatis. Format: functional.
The test system of data set [5] is Mycobacterium tuberculosis. In words: Antimycobacterial activity against replicating Mycobacterium tuberculosis H37Rv. Format: functional.
The nature of data set [6]: Cytotoxicity against African green monkey Vero cells assessed as reduction in cell viability. Format: toxicity, cell-based, Chlorocebus sabaeus. The note with it: for IC50: African green monkey.
Data set [7] deals with Mycobacterium tuberculosis. In words: Antimycobacterial activity against MDR-Mycobacterium tuberculosis V2475. Format: functional.
Data set [8] concerns Mycobacterium tuberculosis. Nature of the data set: Antimycobacterial activity against MDR-Mycobacterium tuberculosis KZN494. Format: functional.
A short description of data set [9]: Selectivity index, ratio of IC50 for cytotoxicity against African green monkey Vero cells to MIC90 for antimycobacterial activity against MDR-Mycobacterium tuberculosis V2475. The note with it: read-out: Selectivity Index. The data set is classed as toxicity, cell-based.
Data set [10] is described as follows: Selectivity index, ratio of IC50 for cytotoxicity against African green monkey Vero cells to MIC90 for antimycobacterial activity against MDR-Mycobacterium tuberculosis KZN494. Format: toxicity, cell-based. Conditions: read-out: Selectivity Index.
In data set [11] the test system is Mycobacterium tuberculosis. In words: Antimycobacterial activity against XDR-Mycobacterium tuberculosis TF274. The data set is classed as functional.
The test system of data set [12] is Mycobacterium tuberculosis. Nature of the data set: Antimycobacterial activity against XDR-Mycobacterium tuberculosis R506. The data set is classed as functional.
The test system of data set [13] is Mycobacterium tuberculosis. In words: Antimycobacterial activity against drug-sensitive Mycobacterium tuberculosis H37Rv. The data set is classed as functional.
A short description of data set [14]: Selectivity index, ratio of IC50 for cytotoxicity against African green monkey Vero cells to MIC90 for antimycobacterial activity against XDR-Mycobacterium tuberculosis R506. Format: toxicity, cell-based. Conditions: read-out: Selectivity Index.
Data set [15] can be described thus: Selectivity index, ratio of IC50 for cytotoxicity against African green monkey Vero cells to MIC90 for antimycobacterial activity against drug-sensitive Mycobacterium tuberculosis H37Rv. The data set is classed as toxicity, cell-based. Conditions: read-out: Selectivity Index.
The nature of data set [16]: Selectivity index, ratio of IC50 for cytotoxicity against African green monkey Vero cells to MIC90 for antimycobacterial activity against XDR-Mycobacterium tuberculosis TF274. The data set is classed as toxicity, cell-based. Conditions: read-out: Selectivity Index.
Data set [17] concerns Mycobacterium tuberculosis. In words: Antimycobacterial activity against drug-sensitive Mycobacterium tuberculosis V4207. The data set is classed as functional.
Data set [18] in a line: Selectivity index, ratio of IC50 for cytotoxicity against African green monkey Vero cells to MIC90 for antimycobacterial activity against drug-sensitive Mycobacterium tuberculosis V4207. Conditions: read-out: Selectivity Index. Format: toxicity, cell-based.
Data set [19] is described as follows: Aqueous solubility of the compound. The data set is classed as physicochemical. The note with it: aqueous medium.
The test system of data set [20] is Mycobacterium tuberculosis. Nature of the data set: Antibacterial activity against non-replicating Mycobacterium tuberculosis H37Rv-LUX assessed as inhibition of bacterial growth incubated for 9 days under anaerobic conditions followed by 28 hrs under aerobic conditions by LORA assay. The data set is classed as functional. Conditions: time 244 hrs.
Data set [21] concerns Mycobacterium tuberculosis. Nature of the data set: Antimycobacterial activity against Mycobacterium tuberculosis Erdman infected in BALB/c mouse model assessed as log reduction of bacterial load in lung at 200 mg/kg, po administered 5 days a week for 30 days untill day 58. Format: functional. The note with it: time 58 day.
Data set [22] can be described thus: Microsomal stability in human liver microsomes assessed as half life. Format: ADME, Microsome. Background: Microsomes from liver hold many membrane-bound enzymes, among them those of drug oxidation.

Converted amounts (≈) assume the structure as drawn.

In [1], `N#Cc1cccc(Nc2cc(C(F)(F)F)ccc2-c2cnc3ccccn23)c1` displayed an MIC90 of 6.08 µM (≈ 2.3 µg/mL). Further, inhibition in [2] was half-maximal at 217 µM (IC50).

Take `COc1ccn2nc(C)c(C(=O)NCc3ccc(N4CCC(c5ccc(OC(F)(F)F)cc5)CC4)cc3)c2c1`: the MIC90 in data set [1] worked out at 0.011 µM (≈ 0.00592 µg/mL).

`Cc1ccc(CNC(=O)Cc2c(C)nc3ccc(C)cn23)cc1` registered an MIC90 in data set [1] of 1.7 µM (≈ 0.523 µg/mL).

Consider `Cc1ccn2c(C(=O)N3CCN(c4nc(=O)c5cc(C(F)(F)F)cc([N+](=O)[O-])c5s4)CC3)c(C)nc2c1`, for which the MIC90 in data set [3] was 2.1 µM (≈ 1.12 µg/mL).

`Cc1nc(-c2ccccc2)sc1-c1cn2ccc(Br)cc2n1` had an MIC90 in [4] of 67.5 µM (≈ 25 µg/mL).

`Cc1ccc(-c2nc3ccc(C)cn3c2CC(=O)N(C)C)cc1` [ZOLPIDEM]: in data set [5], the MIC90 was found to be 10 µM (≈ 3.07 µg/mL).

In the case of `Cc1nc2ccc(Cl)cn2c1C(=O)NCCCC1CCCCC1`, in data set [6], the IC50 is no less than 191 µM. In addition, the MIC90 stood at 0.37 µM (≈ 0.124 µg/mL) in data set [7]; 0.09 µM (≈ 0.03 µg/mL) in [8]; 1.5 µM (≈ 0.501 µg/mL) in [11]; 0.75 µM (≈ 0.25 µg/mL) in [12]; 0.19 µM (≈ 0.0634 µg/mL) in data set [13]; 0.37 µM (≈ 0.124 µg/mL) in data set [17]. Further, the selectivity ratio in data set [9], in data set [10], in [14], in [15], in data set [16] and in data set [18] was no less than 1024 each time.

Take `Cc1ccc2nc(C)c(C(=O)NCCCC3CCCCC3)n2c1`: the IC50 in data set [6] is 120 µM. Further, the MIC90 in [7] was 0.2 µM (≈ 0.0627 µg/mL); in data set [8] it was 0.05 µM (≈ 0.0157 µg/mL); in data set [11], 0.2 µM (≈ 0.0627 µg/mL); in data set [12], 0.1 µM (≈ 0.0313 µg/mL); in data set [13], 0.1 µM (≈ 0.0313 µg/mL); in data set [17], 0.1 µM (≈ 0.0313 µg/mL). In addition, the selectivity ratio in data set [9], in data set [10], in data set [14], in [15], in data set [16] and in [18] was no less than 1024 throughout.

`Cc1ccn2c(C(=O)NCc3ccccc3)c(C)nc2c1`: the MIC99 in [1] was determined as 0.2 µM (≈ 0.0559 µg/mL).

As to `Cc1ccn2c(C(=O)NCc3ccc(C(=O)N4CCN(c5nc(=O)c6cc(C(F)(F)F)cc([N+](=O)[O-])c6s5)CC4)cc3)c(C)nc2c1`, the MIC90 in data set [3] is greater than 10 µM.

For `Cc1ccc2nc(C)c(C(=O)NCc3cccs3)n2c1`, in [13], the MIC90 turned out to be 0.22 µM (≈ 0.0628 µg/mL).

Take `Cc1nc(-c2ccc(F)cc2)sc1-c1cn2ccc(Br)cc2n1`: the MIC90 in [4] came to 53.6 µM (≈ 20.8 µg/mL).

`Cc1ccn2c(C(=O)NCc3ccc(C(=O)OCc4ccccc4)cc3)c(C)nc2c1`: the MIC90 in [3] was determined as 0.21 µM (≈ 0.0868 µg/mL).

Turning to `Cc1cn2c(C(=O)NCc3ccc(N4CCN(c5ccc(OC(F)(F)F)cc5)CC4)c(F)c3)c(C)nc2s1`, the CC50 in data set [6] (chlorocebus sabaeus) was greater than 100 µM. In data set [19], this compound had a solubility of 50 µM (≈ 27.4 µg/mL). Besides, the MIC90 in [20] was determined as 1.1 µM (≈ 0.602 µg/mL); in data set [5] it was 0.008 µM (≈ 0.00438 µg/mL). Also, the Activity in data set [21] is 0.3 log10CFU. The half-life in data set [22] amounted to 28 min.

In the case of `Cc1nc(-c2ccc(F)cc2)sc1-c1cn2ccccc2n1`, in data set [4], the MIC90 is 90.2 µM (≈ 27.9 µg/mL).

`Cc1ccn2nc(C)c(C(=O)NCc3ccc(C(F)(F)F)cc3)c2c1` showed an MIC90 in [1] of 0.069 µM (≈ 0.024 µg/mL).

Compound `CCc1ccn2c(C(=O)NCc3ccc(C)cc3)c(C)nc2c1` returned an MIC90 in data set [5] of 0.004 µM (≈ 0.00123 µg/mL).

In turn, `CC(C)(C)OC(=O)N1CCN(c2nc(=O)c3cc(C(F)(F)F)cc([N+](=O)[O-])c3s2)CC1` gave an MIC90 in data set [3] of 0.28 µM (≈ 0.129 µg/mL).

For orientation: MIC90 means an inhibitory concentration at the 90% level, which refers to growth in some studies and to a panel of isolates in others. For orientation: IC50 means the midpoint of a concentration-inhibition curve. The term MIC99 denotes an inhibitory concentration at the 99% level, which refers to growth in some studies and to a panel of isolates in others. For orientation: CC50 means the concentration at which the toxic effect on the cells reaches its halfway point. In general, solubility refers to the dissolved amount per volume that the medium holds. The half-life is how long it takes for the measured level to halve.
